The target of this assay is T1, recombinant human CETP (Homo sapiens, UniProt P11597).
T1 construct: made in house; host or cells: CHO cells
T1 sequence (P11597 18-493): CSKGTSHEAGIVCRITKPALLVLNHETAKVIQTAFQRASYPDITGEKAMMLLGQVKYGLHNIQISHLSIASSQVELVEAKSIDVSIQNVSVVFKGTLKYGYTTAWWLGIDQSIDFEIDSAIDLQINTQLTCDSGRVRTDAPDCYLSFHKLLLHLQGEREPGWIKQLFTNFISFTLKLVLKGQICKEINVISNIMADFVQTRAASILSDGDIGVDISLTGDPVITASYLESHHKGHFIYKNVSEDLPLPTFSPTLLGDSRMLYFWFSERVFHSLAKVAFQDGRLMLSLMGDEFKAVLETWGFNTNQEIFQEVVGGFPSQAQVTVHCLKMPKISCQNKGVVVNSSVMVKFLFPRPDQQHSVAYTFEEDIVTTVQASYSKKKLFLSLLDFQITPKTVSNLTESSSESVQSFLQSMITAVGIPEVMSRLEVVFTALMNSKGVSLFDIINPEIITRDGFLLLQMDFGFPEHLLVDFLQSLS
The assay is described as follows: CETP assay, in vitro continuous fluorescence assay of CE transfer (BODIPY-CE donor particles). The assay is classed as biochemical. To be noted: CE transfer reaction, 3% human serum, 25° C.; read-out: IC50 value as measured for the CE transfer reaction. As for the experimental part: An in vitro continuous assay for determining IC50's to identify compounds that are CETP inhibitors was performed based on a modification of the method described by Epps et al. employing BODIPY®-CE as the cholesteryl ester lipid donor and BODIPY®-TG as the triglyceride lipid donor. See Epps et al. (1995) Method for measuring the activities of cholesteryl ester transfer protein (lipid transfer protein), Chem. Phys. Lipids. 77, 51-63.
Particles used in the assay were created from the following materials by probe sonication essentially as described by Epps et al. Synthetic cholesteryl ester (CE) donor HDL particles contained DOPC (Dioleoyl Phosphatidyl Choline), BODIPY®-CE (Molecular Probes C-3927), triolein (a triglyceride), dabcyl dicetylamide, (a non-diffusible quencher molecule to reduce background fluorescence) and apoHDL. Synthetic triglyceride (TG) donor HDL particles contained DOPC, BODIPY®-TG, and apoHDL. […] Particle concentrations were expressed in terms of protein concentration as determined by BCA assay (Pierce, USA). […]
Assays were performed in Dynex Microfluor 2 U-bottom black 96-well plates (Cat #7205). […] CE transfer reactions were performed as follows: final concentrations of materials were: 2.5 ng/μCE donor particles, 7.5 ng/μL acceptor particles (each expressed by protein content), 1×CETP buffer, 14-30 nM recombinant human CETP (expressed in CHO cells and partially purified), and up to 2% DMSO when testing compounds; reactions were followed in a fluorescence plate reader (Molecular Devices Spectramax GeminiXS) set for a 45 minute kinetic run at 25° C. which read the samples every 45 sec at Ex=480 nm, Em=511 nm, with a cutoff filter at 495 nm, photomultiplier tube setting of medium, calibration on, and 6 reads/well. […] TG transfer was measured at an excitation wavelength of 538 nm while reading emission at 568 nm every 45 sec for 45 min at 37° C. with a cutoff filter at 550 nm.
Data were evaluated by obtaining an initial rate, expressed in relative fluorescence units per second, for the pseudolinear portion of the curve, often 0-500 or 1000 sec. […]

From patent US8445480B2, “CETP inhibitors derived from benzoxazole arylamides” (Merck Sharp & Dohme Corp., priority 2007, dated 2013) come the findings set out here.

What is called IC50 is the concentration at which inhibition is half-maximal.

On to `CC(C)c1cc(C#N)cc2nc(-c3ccc(C(=O)NCC4CCN(Cc5cccc(C(F)(F)F)c5)CC4)cc3)oc12` [Example 58], for which the half-inhibitory concentration (IC50) fell in the range of 13 to 60 nM. As for `CC(C)c1cc(C#N)cc2nc(-c3ccc(C(=O)NCC4CCN(c5ccc(C(F)(F)F)cn5)CC4)cc3)oc12` [Example 3], the figure is 13 to 60 nM; as for `CC(C)c1cc(C#N)cc2nc(-c3ccc(C(=O)NCC4CCN(c5nccc(C(F)(F)F)n5)CC4)cc3)oc12` [Example 1, 4-(5-Cyano-7-isopropyl-1,3-benzoxazol-2-yl)-N-({1-[4-(trifluoromethyl)pyrimidin-2-yl]piperidin-4-yl}methyl)benzamide], 13 to 60 nM.
